pIC50: −log10 of the molar value.
Legend:
Type in all cases: biochemical
LCK = LCK (Homo sapiens, UniProt P06239); assay: Inhibition of a panel of kinases, in vitro HotSpot kinase assay: LCK; conditions: D-compounds panel data; 1 μM ATP; read-out: IC50 LCK
SRC = SRC (Homo sapiens, UniProt P12931); assay: Inhibition of a panel of kinases, in vitro HotSpot kinase assay: SRC; conditions: D-compounds panel data; 1 μM ATP
Experimental: (§1) The degree of inhibition of a panel of kinases is determined using the in vitro HotSpot kinase assay (purified enzymes, ^33P-ATP, an appropriate substrate and 1 μM ATP).

ITK = target: T1, ITK (Homo sapiens, UniProt Q08881); assay: Inhibition of a panel of kinases, in vitro HotSpot kinase assay: ITK; conditions: D-compounds panel data; 1 μM ATP
T1 sequence (Q08881 1-620): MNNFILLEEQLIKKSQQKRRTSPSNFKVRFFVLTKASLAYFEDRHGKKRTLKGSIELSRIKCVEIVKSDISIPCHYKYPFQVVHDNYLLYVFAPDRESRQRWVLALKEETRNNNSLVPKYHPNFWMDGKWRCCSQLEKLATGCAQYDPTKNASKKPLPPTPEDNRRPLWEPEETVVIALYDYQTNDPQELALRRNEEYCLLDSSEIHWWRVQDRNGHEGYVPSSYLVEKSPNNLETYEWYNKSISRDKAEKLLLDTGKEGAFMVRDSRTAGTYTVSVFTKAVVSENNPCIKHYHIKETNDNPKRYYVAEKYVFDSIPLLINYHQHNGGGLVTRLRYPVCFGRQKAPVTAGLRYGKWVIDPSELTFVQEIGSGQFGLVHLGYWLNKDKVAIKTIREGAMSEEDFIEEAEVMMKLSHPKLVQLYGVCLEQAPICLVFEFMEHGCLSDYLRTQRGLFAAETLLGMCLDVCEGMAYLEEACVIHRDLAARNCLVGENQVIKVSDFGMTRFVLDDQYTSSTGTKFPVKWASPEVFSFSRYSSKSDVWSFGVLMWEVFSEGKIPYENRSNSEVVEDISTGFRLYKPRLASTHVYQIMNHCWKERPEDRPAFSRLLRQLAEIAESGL
Experimental: as §1

BTK-WT = target: T2, BTK-WT (Homo sapiens, UniProt Q06187); assay: Btk in vitro inhibitory activity (one of Method A TR-FRET, Method B electrophoretic mobility shift, Method C radiometric filter binding); conditions: D-compounds panel data; read-out: IC50 BTK-WT
T2 construct: purified from insect cells as a full-length construct containing an N-terminal 6X-His tag; His6 (N); made in house; host or cells: insect cells (baculovirus Sf21 in Method B)
T2 sequence (Q06187 whole entry): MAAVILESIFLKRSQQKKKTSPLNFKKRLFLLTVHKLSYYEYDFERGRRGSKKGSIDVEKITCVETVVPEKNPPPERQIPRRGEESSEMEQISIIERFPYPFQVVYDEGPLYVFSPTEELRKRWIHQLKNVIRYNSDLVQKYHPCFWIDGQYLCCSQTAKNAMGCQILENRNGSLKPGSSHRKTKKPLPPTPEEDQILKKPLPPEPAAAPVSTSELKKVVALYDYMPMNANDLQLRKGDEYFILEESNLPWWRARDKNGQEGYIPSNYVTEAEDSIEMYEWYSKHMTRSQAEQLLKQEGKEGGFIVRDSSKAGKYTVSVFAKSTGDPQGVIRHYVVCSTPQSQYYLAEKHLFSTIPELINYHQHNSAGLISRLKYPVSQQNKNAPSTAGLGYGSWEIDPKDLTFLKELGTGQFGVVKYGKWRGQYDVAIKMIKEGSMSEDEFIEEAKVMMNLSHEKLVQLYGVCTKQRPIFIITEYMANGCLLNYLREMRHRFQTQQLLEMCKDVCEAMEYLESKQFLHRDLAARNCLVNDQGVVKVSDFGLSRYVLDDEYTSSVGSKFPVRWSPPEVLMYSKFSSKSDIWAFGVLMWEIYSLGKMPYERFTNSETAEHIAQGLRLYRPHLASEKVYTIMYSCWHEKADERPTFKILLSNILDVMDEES

TEC = target: T3, TEC (Homo sapiens, UniProt P42680); assay: Inhibition of a panel of kinases, in vitro HotSpot kinase assay: TEC; conditions: D-compounds panel data; 1 μM ATP
T3 sequence (P42680 1-631): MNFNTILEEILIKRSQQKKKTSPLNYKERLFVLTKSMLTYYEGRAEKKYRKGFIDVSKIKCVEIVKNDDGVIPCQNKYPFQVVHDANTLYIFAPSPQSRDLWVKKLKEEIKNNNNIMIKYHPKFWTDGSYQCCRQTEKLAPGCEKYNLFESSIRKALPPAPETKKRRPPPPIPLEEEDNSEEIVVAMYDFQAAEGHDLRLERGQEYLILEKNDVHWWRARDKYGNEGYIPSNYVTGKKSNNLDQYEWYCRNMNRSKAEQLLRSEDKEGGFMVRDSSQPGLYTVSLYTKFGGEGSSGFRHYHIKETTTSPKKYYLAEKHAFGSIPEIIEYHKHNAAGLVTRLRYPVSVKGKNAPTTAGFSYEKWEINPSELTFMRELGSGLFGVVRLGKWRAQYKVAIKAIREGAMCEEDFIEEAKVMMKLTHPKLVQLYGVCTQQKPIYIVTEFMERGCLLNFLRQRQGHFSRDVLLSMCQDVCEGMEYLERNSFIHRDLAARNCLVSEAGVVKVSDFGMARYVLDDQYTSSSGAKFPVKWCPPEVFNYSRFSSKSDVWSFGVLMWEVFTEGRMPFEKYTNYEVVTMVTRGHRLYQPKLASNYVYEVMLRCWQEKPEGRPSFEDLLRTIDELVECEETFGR
Experimental: as §1

Sequence of LCK (P06239 whole entry): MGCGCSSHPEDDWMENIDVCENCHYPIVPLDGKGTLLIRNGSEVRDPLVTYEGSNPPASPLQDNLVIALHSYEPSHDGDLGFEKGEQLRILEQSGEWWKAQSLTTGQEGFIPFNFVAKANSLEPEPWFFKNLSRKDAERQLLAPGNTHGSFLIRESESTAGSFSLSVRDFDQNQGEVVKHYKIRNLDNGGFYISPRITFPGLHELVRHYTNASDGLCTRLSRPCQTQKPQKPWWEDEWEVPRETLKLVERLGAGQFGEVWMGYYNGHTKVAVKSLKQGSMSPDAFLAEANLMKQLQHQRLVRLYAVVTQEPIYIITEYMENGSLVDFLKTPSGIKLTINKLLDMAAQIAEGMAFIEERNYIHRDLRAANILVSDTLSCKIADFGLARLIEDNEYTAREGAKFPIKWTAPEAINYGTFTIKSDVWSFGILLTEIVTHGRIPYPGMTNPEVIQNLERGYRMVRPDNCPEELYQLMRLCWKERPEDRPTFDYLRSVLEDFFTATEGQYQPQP
Sequence of SRC (P12931 whole entry): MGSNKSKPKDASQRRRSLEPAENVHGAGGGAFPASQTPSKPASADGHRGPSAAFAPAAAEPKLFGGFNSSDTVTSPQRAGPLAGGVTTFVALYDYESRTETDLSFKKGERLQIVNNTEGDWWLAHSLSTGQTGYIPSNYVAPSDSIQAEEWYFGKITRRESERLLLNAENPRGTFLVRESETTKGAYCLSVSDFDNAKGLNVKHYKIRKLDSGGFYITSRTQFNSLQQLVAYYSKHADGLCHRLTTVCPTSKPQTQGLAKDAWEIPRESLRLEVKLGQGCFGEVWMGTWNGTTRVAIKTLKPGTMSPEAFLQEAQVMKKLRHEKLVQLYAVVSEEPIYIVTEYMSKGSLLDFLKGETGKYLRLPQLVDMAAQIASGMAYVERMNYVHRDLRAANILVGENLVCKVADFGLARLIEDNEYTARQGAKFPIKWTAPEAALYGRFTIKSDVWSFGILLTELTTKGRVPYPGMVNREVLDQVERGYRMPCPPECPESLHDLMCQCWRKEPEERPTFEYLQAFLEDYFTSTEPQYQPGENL

Row | SMILES | pIC50 (LCK) | pIC50 (SRC) | pIC50 (ITK) | pIC50 (BTK-WT) | pIC50 (TEC)
1 | C[C@@H]1[C@H](NC(=O)c2cc(C3CC3)n[nH]2)CCCN1c1cnc(C(N)=O)c(Nc2cnn(C)c2)n1 [Example D-252, 5-[(2R,3R)-3-(3-cyclopropyl-1H-pyrazole-5-amido)-2-methylpiperidin-1-yl]-3-[(1-methyl-1H-pyrazol-4-yl)amino]pyrazine-2-carboxamide] | 7.00 to 8.00 | 7.00 to 8.00 | 7.00 to 8.00 | ≥ 8.00 | ≥ 8.00
2 | C[C@@H]1[C@H](NC(=O)c2cc(C3CC3)n(C)n2)CCCN1c1cnc(C(N)=O)c(Nc2cnn(C)c2)n1 [Example D-253, 5-[(2R,3R)-3-(5-cyclopropyl-1-methyl-1H-pyrazole-3-amido)-2-methylpiperidin-1-yl]-3-[(1-methyl-1H-pyrazol-4-yl)amino]pyrazine-2-carboxamide] | 6.00 to 7.00 | 7.00 to 8.00 | 6.00 to 7.00 | ≥ 8.00 | ≥ 8.00
3 | C[C@@H]1[C@H](NC(=O)c2ccc3c(cnn3C)c2)CCCN1c1cnc(C(N)=O)c(Nc2cnn(C)c2)n1 [Example D-254, N-[(2R,3R)-1-{5-carbamoyl-6-[(1-methyl-1H-pyrazol-4-yl)amino]pyrazin-2-yl}-2-methylpiperidin-3-yl]-1-methyl-1H-indazole-5-carboxamide] | 6.00 to 7.00 | 7.00 to 8.00 | 6.00 to 7.00 | ≥ 8.00 | ≥ 8.00
4 | CC(C)n1nnc2cc(C(=O)N[C@@H]3CCCN(c4cnc(C(N)=O)c(Nc5cnn(C)c5)n4)[C@@H]3C)ccc21 [Example D-255, N-[(2R,3R)-1-{5-carbamoyl-6-[(1-methyl-i H-pyrazol-4-yl)amino]pyrazin-2-yl}-2-methylpiperidin-3-yl]-1-(propan-2-yl)-1H-1,2,3-benzotriazole-5-carboxamide] | 6.00 to 7.00 | 7.00 to 8.00 | 6.00 to 7.00 | ≥ 8.00 | ≥ 8.00
5 | C[C@@H]1[C@H](NC(=O)c2coc(C3CC3)n2)CCCN1c1cnc(C(N)=O)c(Nc2cnn(C)c2)n1 [Example D-257, 5-[(2R,3R)-3-(2-cyclopropyl-1,3-oxazole-4-amido)-2-methylpiperidin-1-yl]-3-[(1-methyl-1H-pyrazol-4-yl)amino]pyrazine-2-carboxamide] | 7.00 to 8.00 | 7.00 to 8.00 | 6.00 to 7.00 | ≥ 8.00 | ≥ 8.00
6 | C[C@@H]1[C@H](NC(=O)c2ccc3c(c2)CCC(C)(C)O3)CCCN1c1cnc(C(N)=O)c(Nc2cnn(C)c2)n1 [Example D-258, 5-[(2R,3R)-3-(2,2-dimethyl-3,4-dihydro-2H-1-benzopyran-6-amido)-2-methylpiperidin-1-yl]-3-[(1-methyl-1H-pyrazol-4-yl)amino]pyrazine-2-carboxamide] | 6.00 to 7.00 | 7.00 to 8.00 | 6.00 to 7.00 | ≥ 8.00 | ≥ 8.00
7 | C[C@@H]1[C@H](NC(=O)c2ccc3cnn(C)c3c2)CCCN1c1cnc(C(N)=O)c(Nc2cnn(C)c2)n1 [Example D-259, N-[(2R,3R)-1-{5-carbamoyl-6-[(1-methyl-1H-pyrazol-4-yl)amino]pyrazin-2-yl}-2-methylpiperidin-3-yl]-1-methyl-1H-indazole-6-carboxamide] | 7.00 to 8.00 | 7.00 to 8.00 | 6.00 to 7.00 | ≥ 8.00 | ≥ 8.00
8 | C[C@@H]1[C@H](NC(=O)c2ccc(C3(CO)CC3)cc2)CCCN1c1cnc(C(N)=O)c(Nc2cnn(C)c2)n1 [Example D-260, 5-[(2R,3R)-3-{4-[1-(hydroxymethyl)cyclopropyl]benzamido}-2-methylpiperidin-1-yl]-3-[(1-methyl-1H-pyrazol-4-yl)amino]pyrazine-2-carboxamide] | 7.00 to 8.00 | 7.00 to 8.00 | 6.00 to 7.00 | ≥ 8.00 | ≥ 8.00
9 | Cc1nc2cc(C(=O)N[C@@H]3CCCN(c4cnc(C(N)=O)c(Nc5cnn(C)c5)n4)[C@@H]3C)ccc2[nH]1 [Example D-261, N-[(2R,3R)-1-{5-carbamoyl-6-[(1-methyl-1H-pyrazol-4-yl)amino]pyrazin-2-yl}-2-methylpiperidin-3-yl]-2-methyl-1H-1,3-benzodiazole-5-carboxamide] | 7.00 to 8.00 | 7.00 to 8.00 | 6.00 to 7.00 | ≥ 8.00 | ≥ 8.00
10 | C[C@@H]1[C@H](NC(=O)c2ccc3[nH]cnc3c2)CCCN1c1cnc(C(N)=O)c(Nc2cnn(C)c2)n1 [Example D-262, N-[(2R,3R)-1-{5-carbamoyl-6-[(1-methyl-1H-pyrazol-4-yl)amino]pyrazin-2-yl}-2-methylpiperidin-3-yl]-1H-1,3-benzodiazole-5-carboxamide] | 7.00 to 8.00 | 7.00 to 8.00 | 6.00 to 7.00 | ≥ 8.00 | ≥ 8.00
11 | C[C@@H]1[C@H](NC(=O)c2cc3n(n2)CCC3)CCCN1c1cnc(C(N)=O)c(Nc2cnn(C)c2)n1 [Example D-263, 3-[(1-methyl-1H-pyrazol-4-yl)amino]-5-[(2R,3R)-2-methyl-3-{4H,5H,6H-pyrrolo[1,2-b]pyrazole-2-amido}piperidin-1-yl]pyrazine-2-carboxamide] | 7.00 to 8.00 | 7.00 to 8.00 | 6.00 to 7.00 | ≥ 8.00 | ≥ 8.00
12 | C[C@@H]1[C@H](NC(=O)c2c[nH]c(C3CC3)n2)CCCN1c1cnc(C(N)=O)c(Nc2cnn(C)c2)n1 [Example D-264, 5-[(2R,3R)-3-(2-cyclopropyl-1H-imidazole-4-amido)-2-methylpiperidin-1-yl]-3-[(1-methyl-1H-pyrazol-4-yl)amino]pyrazine-2-carboxamide] | 7.00 to 8.00 | 7.00 to 8.00 | 6.00 to 7.00 | ≥ 8.00 | ≥ 8.00
13 | C[C@@H]1[C@H](NC(=O)c2ccc3nccn3c2)CCCN1c1cnc(C(N)=O)c(Nc2cnn(C)c2)n1 [Example D-266, 5-[(2R,3R)-3-(imidazo[1,2-a]pyridine-6-amido)-2-methylpiperidin-1-yl]-3-[(1-methyl-1H-pyrazol-4-yl)amino]pyrazine-2-carboxamide] | 7.00 to 8.00 | 7.00 to 8.00 | 7.00 to 8.00 | ≥ 8.00 | ≥ 8.00
14 | C[C@@H]1[C@H](NC(=O)c2ccc3nn(C)cc3c2)CCCN1c1cnc(C(N)=O)c(Nc2cnn(C)c2)n1 [Example D-267, N-[(2R,3R)-1-{5-carbamoyl-6-[(1-methyl-1H-pyrazol-4-yl)amino]pyrazin-2-yl}-2-methylpiperidin-3-yl]-2-methyl-2H-indazole-5-carboxamide] | 7.00 to 8.00 | 7.00 to 8.00 | 6.00 to 7.00 | ≥ 8.00 | ≥ 8.00
15 | C[C@@H]1[C@H](NC(=O)c2ccc(C(N)=O)cc2)CCCN1c1cnc(C(N)=O)c(Nc2cnn(C)c2)n1 [Example D-268, 1-N-[(2R,3R)-1-{5-carbamoyl-6-[(1-methyl-1H-pyrazol-4-yl)amino]pyrazin-2-yl}-2-methylpiperidin-3-yl]benzene-1,4-dicarboxamide] | 7.00 to 8.00 | 7.00 to 8.00 | 6.00 to 7.00 | ≥ 8.00 | ≥ 8.00
16 | COCCN(C)Cc1cc(Nc2nc(N3CCC[C@@H](NC(=O)c4ccc(C5CC5)cc4)[C@H]3C)cnc2C(N)=O)sn1 [Example D-269, 5-[(2R,3R)-3-(4-cyclopropylbenzamido)-2-methylpiperidin-1-yl]-3-[(3-{[(2-methoxyethyl)(methyl)amino]methyl}-1,2-thiazol-5-yl)amino]pyrazine-2-carboxamide] | 6.00 to 7.00 | 7.00 to 8.00 | 6.00 to 7.00 | ≥ 8.00 | 6.00 to 7.00

Source: patent publication US20210070748A1, “INHIBITORS OF BRUTONS TYROSINE KINASE” (Pharmacyclics LLC, priority 2015, published 2021)
